# Data as given in patent publication US20070004634A1 (Novo Nordisk A/S, priority 1998, published 2007).
# No end group written: not given here.
# Tests used:
# [1] = tested on: IR; assay: IR activity (agonist/antagonist) of MBP-peptide fusions, Table 10; test not named; settings: MBP-peptide fusion proteins; one symbol per monomer unit
# [2] = tested on: MiaPaCa cells; settings: MiaPaCa
# [3] = tested on: MCF-7 cells
# [4] = molecular target: His-tagged soluble recombinant human IGF-IR (srhIGF-1R-his) (Homo sapiens, UniProt P08069); assay: ALPHAScreen competition, b-hIGF-1 binding to srhIGF-1R-his; settings: read-out: Affin.; AlphaScreen assay versus IGF-1
# His-tagged soluble recombinant human IGF-IR (srhIGF-1R-his), sequence (P08069 31-736 limits assumed): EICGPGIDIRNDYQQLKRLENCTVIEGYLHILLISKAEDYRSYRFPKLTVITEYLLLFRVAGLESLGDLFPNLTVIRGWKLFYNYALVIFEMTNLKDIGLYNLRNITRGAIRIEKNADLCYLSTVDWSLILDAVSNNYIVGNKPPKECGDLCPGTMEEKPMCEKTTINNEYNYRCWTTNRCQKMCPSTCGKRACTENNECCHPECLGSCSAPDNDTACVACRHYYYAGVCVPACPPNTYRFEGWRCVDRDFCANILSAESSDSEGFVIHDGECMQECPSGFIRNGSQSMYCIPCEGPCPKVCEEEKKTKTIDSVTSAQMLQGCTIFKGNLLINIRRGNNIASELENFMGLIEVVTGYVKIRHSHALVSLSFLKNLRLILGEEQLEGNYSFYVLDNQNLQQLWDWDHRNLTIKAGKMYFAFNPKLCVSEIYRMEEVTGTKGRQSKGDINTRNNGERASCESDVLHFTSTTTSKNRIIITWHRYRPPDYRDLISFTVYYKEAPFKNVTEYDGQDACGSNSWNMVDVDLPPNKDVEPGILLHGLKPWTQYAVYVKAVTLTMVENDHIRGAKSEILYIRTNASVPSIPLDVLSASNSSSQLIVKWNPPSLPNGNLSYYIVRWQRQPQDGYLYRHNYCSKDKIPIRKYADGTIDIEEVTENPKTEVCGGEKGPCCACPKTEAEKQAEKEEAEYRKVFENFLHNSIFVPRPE
# His-tagged soluble recombinant human IGF-IR (srhIGF-1R-his), sequence (P08069 741-935 limits assumed): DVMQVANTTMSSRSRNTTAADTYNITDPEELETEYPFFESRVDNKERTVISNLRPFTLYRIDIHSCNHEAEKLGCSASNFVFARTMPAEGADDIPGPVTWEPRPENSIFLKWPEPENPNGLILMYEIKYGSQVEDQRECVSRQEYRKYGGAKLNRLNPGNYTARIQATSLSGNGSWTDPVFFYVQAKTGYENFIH
# Procedure: Detection of the receptor ligand interaction was measured in an amplified luminescent proximity homogeneous assay (ALPHAScreen; BioSignal-Packard, Montreal). The assay was performed in 384-well Nunc™white polystyrene microplates (Nalge Nunc International, Naperville, Ill.) with a final volume of 40 μl.
# For the first step of the assay, hIGF-1 (PeproTech, Inc., Rocky Hill, N.J.), b-hIGF-1 (see below), and peptides were incubated for 2 h at room temperature. Each concentration of competitor was assayed in duplicate. Non-specific binding was determined in the presence of 3×10^−5 M hIGF-1. In the second step of the assay, acceptor beads were added and the incubation was continued for 0.5 h. In the final step, donor beads were added and the incubation was continued for an additional 1 h.
# For these experiments, potencies of peptide competition were determined using the AlphaScreen assay format.
# [5] = molecular target: IR (Homo sapiens, UniProt P06213); assay: IR-Kd; parameters: replacing the transmembrane domain and the intracellular domain of IR with constant domains from immunoglobulin Fc or λ subunits; made in house; host or cells: human embryonic kidney 293 cells (Bass et al.)
# IR (Homo sapiens, UniProt P06213), sequence (P06213 28-758 limits assumed): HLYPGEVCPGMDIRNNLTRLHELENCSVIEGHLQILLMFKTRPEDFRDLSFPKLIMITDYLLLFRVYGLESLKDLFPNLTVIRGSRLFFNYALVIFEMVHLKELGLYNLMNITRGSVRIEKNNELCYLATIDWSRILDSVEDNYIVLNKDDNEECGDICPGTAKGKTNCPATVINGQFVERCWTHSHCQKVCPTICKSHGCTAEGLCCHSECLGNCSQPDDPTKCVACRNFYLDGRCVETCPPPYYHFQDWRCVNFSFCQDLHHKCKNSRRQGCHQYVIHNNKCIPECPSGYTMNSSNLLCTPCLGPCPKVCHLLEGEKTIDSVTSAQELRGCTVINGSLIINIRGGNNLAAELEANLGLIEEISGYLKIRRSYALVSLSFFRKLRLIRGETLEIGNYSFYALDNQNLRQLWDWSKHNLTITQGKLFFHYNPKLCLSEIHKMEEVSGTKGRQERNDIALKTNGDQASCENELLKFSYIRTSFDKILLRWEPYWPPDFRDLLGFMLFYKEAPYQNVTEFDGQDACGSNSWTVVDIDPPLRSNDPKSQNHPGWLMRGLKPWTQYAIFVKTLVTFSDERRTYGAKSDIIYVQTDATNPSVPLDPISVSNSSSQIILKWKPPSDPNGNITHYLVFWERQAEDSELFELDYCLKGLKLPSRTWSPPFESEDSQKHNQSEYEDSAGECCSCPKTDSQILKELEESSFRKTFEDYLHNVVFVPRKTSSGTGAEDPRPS
# IR (Homo sapiens, UniProt P06213), sequence (P06213 763-1382 limits assumed): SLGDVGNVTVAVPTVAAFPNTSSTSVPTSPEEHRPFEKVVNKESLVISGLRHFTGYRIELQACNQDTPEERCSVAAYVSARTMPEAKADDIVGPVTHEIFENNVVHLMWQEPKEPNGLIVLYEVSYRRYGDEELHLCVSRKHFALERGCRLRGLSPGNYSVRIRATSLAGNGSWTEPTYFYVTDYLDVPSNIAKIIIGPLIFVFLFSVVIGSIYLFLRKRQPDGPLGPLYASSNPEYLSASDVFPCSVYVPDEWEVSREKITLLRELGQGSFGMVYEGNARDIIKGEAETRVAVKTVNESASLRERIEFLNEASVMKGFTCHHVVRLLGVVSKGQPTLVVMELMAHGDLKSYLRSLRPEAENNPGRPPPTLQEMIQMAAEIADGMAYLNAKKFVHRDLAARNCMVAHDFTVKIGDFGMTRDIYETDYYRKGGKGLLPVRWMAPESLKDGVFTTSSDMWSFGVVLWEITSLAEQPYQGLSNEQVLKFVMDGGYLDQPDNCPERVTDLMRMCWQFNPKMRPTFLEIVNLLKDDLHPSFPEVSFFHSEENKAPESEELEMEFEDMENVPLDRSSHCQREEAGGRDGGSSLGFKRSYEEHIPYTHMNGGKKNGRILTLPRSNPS
# Description: Table printed on a drawing sheet, FIG. 5B
# The patent's description of the figure: FIG. 5A: Summary of specific representative amino acid sequences from Formulas 1, 4, 6, and 10 (SEQ ID NOS:1155-1180).
# FIG. 5B: Summary of specific representative amino acid sequences from Formulas 1, 4, 6, and 10 (SEQ ID NOS:1181-1220).
# First copying reader's note: The scan is skewed, so values in the right-hand columns sit slightly higher than their clone names, and their rows were assigned by following the ruled lines.
# Where the first naming reader finds the target: head: IR-Kd
# [6] = molecular target: T1, soluble human insulin receptor-immunoglobulin heavy chain chimera (sIR-Fc) (Homo sapiens, UniProt P06213); assay: TR-FRET competition with biotinylated S175 (b-S175) for sIR-Fc; format: binding; settings: Hill slope, target sIR-Fc, label b-S175
# T1 construct: replacing the transmembrane domain and the intracellular domain of IR with constant domains from immunoglobulin Fc or λ subunits; made in house; host or cells: human embryonic kidney 293 cells (Bass et al.)
# T1 sequence (P06213 28-758 limits assumed, stated change not applied): as the sequence (P06213 28-758 limits assumed) above
# T1 sequence (P06213 763-956 limits assumed, stated change not applied): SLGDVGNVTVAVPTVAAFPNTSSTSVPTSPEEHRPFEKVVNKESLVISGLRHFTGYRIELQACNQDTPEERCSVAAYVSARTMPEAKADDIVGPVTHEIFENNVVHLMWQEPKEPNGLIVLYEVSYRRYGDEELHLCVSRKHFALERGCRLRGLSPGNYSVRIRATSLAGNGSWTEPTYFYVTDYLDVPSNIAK
# Procedure: The TR-FRET assays were performed in a 384-well white microplate with a final volume of 30 μl.
# For these figures, each data point represents the average of two replicate wells.
# [7] = molecular target: T1, soluble human insulin receptor-immunoglobulin heavy chain chimera (sIR-Fc); assay: TR-FRET competition with biotinylated RP9 (b-RP9) for sIR-Fc; format: binding; settings: Hill slope; target sIR-Fc; label b-RP9; TR-FRET
# [8] = molecular target: T2, IGF-1R (Homo sapiens, UniProt P08069); assay: TR-FRET competition with biotinylated-20E2 for rhIGF-1R; settings: TR-FRET (rhIGF-1R, b-20E2) versus FP (sIR-Fc), summary of Table 22
# T2 sequence (P08069 31-736 limits assumed): as the sequence (P08069 31-736 limits assumed) above
# T2 sequence (P08069 741-935 limits assumed): as the sequence (P08069 741-935 limits assumed) above
# Procedure: (§1) For these experiments, each data point represents the average of two replicate wells.
# The assays were performed using a 384-well white microplate (NUNC) with a final volume of 30 μl.
# [9] = molecular target: T1, soluble human insulin receptor-immunoglobulin heavy chain chimera (sIR-Fc); assay: Fluorescence polarization, competition with FITC-RP9 for sIR-Fc; format: binding
# Procedure: as §1
# The assays were performed in a 384-well black microplate (NUNC) with a final volume of 30 μl.
# [10] = molecular target: T2, IGF-1R; assay: TR-FRET dissociation of biotinylated-20E2 from rhIGF-1R; format: binding; settings: peptides 100 μM, IGF-1 30 μM
# Procedure: Best fit non-linear regression analysis of the data, was used to determine dissociation rate constants. Each data point represents a single observation. […] Reactions were allowed to reach equilibrium for 6 h at RT.
# [11] = tested on: free fat cells (adipocytes); assay: Adipocyte / free fat cell (FFC) assay, 3H glucose incorporation into lipid; settings: free fat cell assay class, Table 9
# Procedure: Incorporation of ^3H into the lipid phase was determined by partitioning of lipid phase into a scintillant mixture, which excludes water-soluble ^3H products.
# [12] = molecular target: T3, insulin receptor construct transfected into 32D cells (Homo sapiens, UniProt P06213); assay: IR autophosphorylation assay in IR transfected 32D cells (ELISA); format: cell-based; settings: tested as MBP fusion peptides
# T3 construct: expressed in transfected cells; host or cells: 32D cells (clone 969)
# T3 sequence (P06213 28-758 limits assumed): as the sequence (P06213 28-758 limits assumed) above
# T3 sequence (P06213 763-1382 limits assumed): as the sequence (P06213 763-1382 limits assumed) above
# Procedure: The IR transfected 32D cells were seeded at […] in 96-well tissue culture plates and incubated overnight at 37° C. […] The culture media was decanted from the cell culture plates, and the diluted samples were added to the cells. The plates were incubated at 37° C. for 30 min. The stimulation medium was decanted from the plates, and cell lysis buffer (50 mM HEPES pH 7.2, 150 mM NaCl, 0.5% Triton X-100, 1 mM AEBSF, 10 KIU/ml aprotinin, 50 μM leupeptin, and 2 mM sodium orthovanadate) was added. The cells were lysed for 30 min.
# In the ELISA portion of the assay, the cell lysates were added to the BSA-blocked anti-IR unit mAb (Upstate Biotechnology, Lake Placid, N.Y.) coated ELISA plates. After a 2 h incubation, the plates were washed 6 times with PBST and biotinylated anti-phosphotyrosine antibody (Upstate Biotechnology) is added. After another 2 h incubation, the plates were again washed 6 times. Streptavidin-Eu was then added, and the plates were incubated for 1 h. After washing the plates again, EG&G Wallac enhancement solution (100 mM acetone-potassium hydrogen pthalate, pH 3.2; 15 mM 2-naphtyltrifluoroacetate; 50 mM tri(n-octyl)-phosphine oxide; 0.1% Triton X-100) was added into each well, and the plates were placed onto a shaker for 20 min at RT.
# [13] = molecular target: T4, soluble HIR ectodomain (sIR) (Homo sapiens, UniProt P06213); assay: Fluorescence polarization, competition with FITC-RP9 for sIR; format: binding; settings: Hill slope, target sIR, label FITC-RP9
# T4 construct: soluble HIR ectodomain (sIR); Kristensen et al., 1998
# T4 sequence (P06213 28-758 limits assumed): as the sequence (P06213 28-758 limits assumed) above
# T4 sequence (P06213 763-956 limits assumed): as the sequence (P06213 763-956 limits assumed, stated change not applied) above
compound,measurement,setting,value
"437 (NNNNLGIEGRISEFIEGRAQPAMAFHENFYDWFVRQVSAAAGAPVPYPDPLEPRAA; also: MBP fusion, junction not given here) [Peptide 437]",Act. (activity),[1],N—N
CC(C)C[C@@H]1NC(=O)[C@@H](NC(=O)[C@H](CO)NC(=O)[C@H](Cc2ccc(O)cc2)NC(=O)[C@H](Cc2ccccc2)NC(=O)[C@@H](N)CO)CSSC[C@@H](C(=O)N[C@@H](CCCNC(=N)N)C(=O)N[C@@H](CCCCN)C(=O)N[C@@H](CCCCN)C(=O)O)NC(=O)CNC(=O)[C@H](CC(=O)O)NC(=O)[C@H](Cc2c[nH]c3ccccc23)NC(=O)[C@H](CCC(N)=O)NC(=O)CNC(=O)[C@H](CCCNC(=N)N)NC(=O)[C@H](CO)NC(=O)[C@H](CCCCN)NC(=O)[C@H](CCC(=O)O)NC(=O)[C@H](C)NC(=O)[C@@H]2CCCN2C(=O)CNC(=O)[C@H](CC(N)=O)NC(=O)[C@H](C(C)C)NC(=O)[C@H](CC(C)C)NC(=O)[C@H](CO)NC(=O)[C@H](CCC(=O)O)NC1=O [RP33-IGF with KK],IC50,[2],700 nM
same,IC50,[3]; MCF-7,100 nM
same,Activ.,[3]; proliferation assays in the presence of IGF-1 using MCF-7 and MiaPaCa cells,Antag.
same,IC50,[4],9 nM
AFYDWFAKK [Peptide S167],Kd,[5],> 20000 nM
FHENFYDWFVRQVSKK [Peptide H2C],"Hill, sIR-Fc, b-S175, FRET",[6],−0.82
same,"Hill, sIR-Fc, b-RP9, FRET",[7],−1.03
same,"binding to IGF-1R compared with IR, in words",[8],lower binding ratios for IGF-1R over IR
same,"potency / affinity at IR, in words","[9]; FP with FITC-RP9, summary of Table 22",slightly less potent
same,"Hill, sIR-Fc, FITC-RP9, FP","[9]; Hill slope, target sIR-Fc, label FITC-RP9, fluorescence polarization",−0.27
same,effect on the rate of dissociation of b-20E2 from IGF-1R,[10],dissociation rates of b-20E2 were similar
same,FFC,[11],+
same,stimulation of autophosphorylation of IR,[12],stimulate autophosphorylation
same,"Hill, sIR, FITC-RP9, FP",[13],−0.49
